Data taken from patent US20140011706A1, “SURFACE DISPLAY OF PO[…] METAL PORPHYRIN OR A FLAVIN” (Autodisplay Biotech GMBH, priority 2010, published 2014).
Where two headings read alike, the source gives them in different places.

Tests used:
CYP106A2 [1] = molecular target: T1, CYP106A2 (Priestia megaterium, UniProt Q06069); assay: NADPH consumption of cells displaying CYP106A2 in the presence of imipramine (N-demethylation); assay type: biochemical, E. coli BL21(DE3); design: expressed in transfected cells; host or cells: E. coli BL21(DE3) pET-CYP13, induced with 1 mM IPTG; conditions: imipramine 2.5 μM, NADPH 200 μM, BL21(DE3) pETCYP13 cells OD578=2.5, Adx and AdR added
Protocol: The cells were prepared as described in Example 1. Redox equivalents are transferred from NADPH via the proteins AdR and Adx to the converting enzyme.
The reaction mixture contained in a total volume of 0.2 mL Hepes buffer (50 mM, 0.05% Tween20, pH 7.4), imipramine (2.5 μM), Adx ([…]), AdR (0.5 μM), NADPH (200 μM) and cells of E. coli BL21(DE3) or BL21(DE3) pETCYP13 corresponding to an OD578=2.5.
The by-product formalin (cf. FIG. 17) has been photometrically identified to be produced by the cells displaying CYP106A2, but not in the control cells (data not shown).

CYP106A2 [2] = molecular target: T1, CYP106A2
[3] = E. coli BL21(DE3) pETCYP13 whole cells, induced with 1 mM IPTG, Adx and AdR added

SMILES	conversion indicated by NADPH consumption difference versus control cells (CYP106A2 [1])	product formation from substrate (HPLC product peak) (CYP106A2 [2]; BL21(DE3) pETCYP13 whole cells, 1 mM IPTG, without addition of Adx)	product formation from substrate (HPLC product peak) (CYP106A2 [2]; [3])	amount of product 15β-deoxycorticosterone (HPLC) (CYP106A2 [2]; TolC negative strain JW5503-1 (DE3) pETCYP13 compared with TolC positive BL21(DE3) pETCYP13, IPTG induced)
CN(C)CCCN1c2ccccc2CCc2ccccc21 [imipramine]	conversion of imipramine into desipramine			
C[C@]12CC[C@H]3[C@@H](CCC4=CC(=O)CC[C@@]43C)[C@@H]1CC[C@@H]2C(=O)CO [11-deoxycorticosterone]		no product peak	resulted in a product peak	decreased
CC(C)C1=CC2=CC[C@@H]3[C@](C)(CCC[C@@]3(C)C(=O)O)[C@H]2CC1 [abietic acid]			a product occurred at the expected retention time	
